In one series the test system is Rattus norvegicus. The settings on record: non-resistant rats; cited from earlier work.
Series [1] relates to feral adult brown rats (Rattus norvegicus). The series is described as follows: Experiment using feral adult brown rats: mortality after gavage of sporocysts, coumatetralyl or the combination. The class given is in vivo. The settings on record: single gavage; 10 000 sporocysts and/or 6 mg of coumatetralyl per kg of body weight. How it is done: Experiment Using Feral Adult Brown Rats (Rattus norvegicus)
The mortality was determined.
The rats were raised under standard conditions in the laboratory. During the experiment and the 2-week preparation, they were kept individually in cages made of Makrolon. Sporocyst suspension and coumatetralyl were administered by gavage, and during the administration the animals were anesthetized lightly using diethyl ether.

Marks after values point to notes of the source that are not given here.

`O=c1oc2ccccc2c(O)c1C(CC(O)c1ccc(-c2ccc(Br)cc2)cc1)c1ccccc1` (stereo not drawn) [bromadiolone, 3-(4′-hydroxy-3′-coumarinyl)-3-phenyl-1-(4′-bromo-4′-biphenyl)-propan-1-ol]: the “LD50 (acute oral)” value in the series on Rattus norvegicus is 2.0 mg/kg. For the compound `O=c1oc2ccccc2c(O)c1C1CC(c2ccc(-c3ccc(Br)cc3)cc2)Cc2ccccc21` (stereo not drawn) [brodifacoum], the “LD50 (acute oral)” value with Rattus norvegicus is reported as 0.2 mg/kg. With `O=c1oc2ccccc2c(O)c1C1CCCc2ccccc21` (stereo not drawn) [coumatetralyl, 3-(1′,2′,3′,4′-tetrahydro-1′-naphthyl)-4-hydroxycoumarin], in series [1], the Mortality % is listed as 17* %.

Values taken from patent US7008632B2, “Combination of biological and chemical agents to combat rodents” (priority 2000, dated 2006).
